Results from patent US10383845B2 (priority 2017, dated 2019).
Entries after “also recorded” stand apart in the source; their conditions may differ. Like-named read-outs stand apart in the source and are kept apart here.

How the values were obtained:
[1] = target: Vitamin K Oxide Reductase (Homo sapiens, UniProt Q9BQB6); conditions: cited from earlier work
[2] = system: bacterial VKOR of several strains of mycobacteria; conditions: cited from earlier work
[3] = system: patients suffering from chronic periodontitis; test: Observation of patients suffering from chronic periodontitis under continued systemic medication with Warfarin; assay type: in vivo, human
Source text: Such observations had not been reported in the medical literature or anywhere else.

human VKOR [4] = target: T1, human VKOR (Homo sapiens, UniProt Q9BQB6); conditions: cited from earlier work
T1 construct: from tissue

[5] = Warfarin in plasma and saliva (oral fluid) of 14 patients undergoing Warfarin therapy (Lomonaco et al. 2014); assay type: in vivo, human; conditions: inferred from the findings of Lomonaco
human VKOR [6] = target: T1, human VKOR; test: Inhibition of the human VKOR by unbound plasma Warfarin; assay type: in vivo; conditions: converted from ng/ml
bacteria = conditions: cited from earlier work

T1 sequence (Q9BQB6 whole entry): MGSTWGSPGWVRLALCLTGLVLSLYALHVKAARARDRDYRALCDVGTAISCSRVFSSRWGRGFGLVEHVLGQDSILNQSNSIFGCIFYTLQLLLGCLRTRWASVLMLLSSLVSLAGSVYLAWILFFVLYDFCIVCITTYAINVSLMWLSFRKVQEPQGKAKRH
Sequence of Vitamin K Oxide Reductase (Q9BQB6 whole entry): as above

Row | SMILES | sensitivity of Vitamin K Oxide Reductase to inhibition [1] | concentration at which bacterial VKOR was inhibited [2] | buildup of dental plaque and tartar [3] | chronic periodontitis / periodontal disease [3] | frequency and severity of gingival inflammation occurrences [3] | unbound plasma concentration sufficient for effective inhibition of the human VKOR (human VKOR [4]) | concentration in oral fluid sufficient to be effective [5] | unbound plasma concentration sufficient for effective inhibition of the human VKOR (human VKOR [6]) | antibacterial properties (bacteria)
1 | CC(=O)CC(c1ccccc1)c1c(O)c2ccccc2oc1=O (stereo not shown) [Warfarin] | highly sensitive to inhibition | 1.6 to 4.5 mM | significant decrease; also recorded: reduced | marked improvement; also recorded: significant reduction | reduction; also recorded: reduced | 9 ± 4 ng/mL | less than 1×10^−7 M | ~30 nM | 
2 | O=c1oc2ccccc2c(O)c1Cc1c(O)c2ccccc2oc1=O [Dicumarol] | highly sensitive to inhibition |  |  |  |  |  |  |  | marked antibacterial properties
